Key:
p65 = assay: Nuclear translocation of p65 NF-kB by immunocytochemistry, HeLa; format: cell-based, human; conditions: 15 μM 3 h, 0.1 nM TNF
Description: FIG. 5: Effect of CAMVE on TNF or LPS induced nuclear translocation of p65. A. HeLa cells either untreated or pretreated with 15 μM CAMVE for 3 h at 37° C. were stimulated with 0.1 nM TNF and immunocytochemical analysis were performed as described in “Materials and Methods”. B. Jurkat (5×10^5 cells/ml) cells were pretreated with indicated concentrations of CAMVE for 3 h and then stimulated with 0.1 nM of TNF for 30 min or 100 ng/ml of SA-LPS (serum activated LPS) for 15 min. After these treatments, cells were washed twice with PBS and nuclei were isolated by incubating the cells with […] Pipes-Triton buffer for 30 min at 4° C. Nuclei were stained for p65 and analyzed using FACS. (i). Representative histogram overlay showing TNF or LPS stimulated (1), basal (2), CAMVE stimulated (3), p65 staining in the nucleus. (ii). Ordinates gives the Isotype-corrected MFI for various treatments.
Hela cells grown on cover slips were washed with 0.1M potassium phosphate buffer (pH 7.4) and fixed with 4% formaldehyde in 0.1M potassium phosphate buffer (pH 7.4) for 1 h at room temperature. The cells were permeabilized with 0.1% Triton X-100 in PBS for 1 h. […] After counterstaining for nuclei with DAPI or Hoechst for 5 mins slides were analyzed under a fluorescence microscope (Labophot-2. Nikon, Tokyo, Japan).

Cyclin D1 = Cyclin D1 mRNA, semi-quantitative RT-PCR; format: cell-based, human; conditions: various concentrations
Description: FIG. 10: Effect of CAMVE on Cell Cycle distribution. A. 5×10^5 cells were treated with indicated concentrations of CAMVE as indicated and cell cycle analyses were performed using Flow Cytometry as described in the “Materials and Methods”. The percentage of cells in G1, S, and G2-M phase were calculated using Cell Quest analysis software and are represented within the histograms. The data shown here are from a representative experiment repeated three times with similar results. B. Expression of human Cyclin D1, was assayed by semi quantitative RT-PCR analysis with GAPDH as internal control. […]
Total RNA was isolated using the standard TRIzol method (Gibco BRL). Briefly, 3×10^6 cells were treated with different concentrations of the compounds as indicated in the legends to Figures and after harvesting the cell pellet was resuspended in 1 ml of TRIzol with repeated pipetting. The homogenized sample was incubated at RT for 5 min to permit complete dissociation of the nucleoprotein complexes. 200 μl of chloroform was added and the tubes were shaken vigorously for 15 sec by hand and then incubated at RT for 3 mins. The samples were then centrifuged at 10,000 RPM for 15 mins at 4° C. […]
Changes in gene expression were verified by semi-quantitative RT-PCR using GAPDH as an internal normalization standard. 1 μg of total RNA (quantified by spectrophotometer) was used to reverse transcribe into cDNA. […]

`COC(=O)c1ccc(OC(=O)/C=C/c2ccc(O)c(O)c2)c(OC)c1` [compound 1, Methyl 4-{[(2E)-3-(3,4-dihydroxyphenyl)prop-2-enoyl]oxy}-3-methoxybenzoate] was tested, and the “TNF induced p65 nuclear translocation (immunofluorescence)” value (p65) was “did not show p65 signal” and the “expression of cyclin D1 m-RNA” value (Cyclin D1) was “notably decreased”.

— patent US20100168228A1, “NOVEL CHEMOTHERAPEUTIC AGENTS AGAINST INFLAMMATION AND CANCER” (RELIANCE LIFE SCIENCES PVT. LTD., priority 2006, published 2010)
